Data as given in patent US11401555B2, “Genetic polymorphisms associated with stroke, methods of detection and uses thereof” (CELERA CORPORATION, priority 2008, dated 2022).

Experiment: Stroke statin response (SSR) in the PROSPER pravastatin trial: pravastatin-treated versus placebo-treated, by SNP genotype
Assay type: in vivo, human
Conditions: for HR_RESP_unadj (hazard ratio, pravastatin-treated versus placebo-treated): endpoint stroke; for EVENTS_RESP (number of stroke events): pravastatin arm
From the text: (hCV26505812) for association with SSR in CARE (Table 37) and PROSPER (Table 38), including both unadjusted and adjusted analyses (adjusted for factors such as age, gender, smoking status, hypertension, diabetes, BMI, and LDL and HDL levels). Table 37 provides results in CARE, and Table 38 provides results in PROSPER (whether each analysis is unadjusted or adjusted is indicated in the “adjust” column in Table 37, or by “unadj” and “adj” column labels in Tables 38). With respect to Tables 22-32 and 37-38, the columns labeled “Genotype” (in Tables 22-28 and 37), “Geno_Placebo” (in Tables 29-30 and 38), and “Geno_Resp” (in Tables 31-32 and 38) indicate the genotype which the given stroke risk or SSR results correspond to. […] In Tables 29-32 and 38, the columns labeled “LOWER_PLACEBO” and “UPPER_PLACEBO” (Tables 29-30 and 38), and “LOWER_RESP” and “UPPER_RESP” (Tables 31-32 and 38), refer to the lower and upper 95% confidence intervals for the hazard ratios. See Example Six below for further information relating to Tables 22-32 and 37-38. […] As used herein, the term “benefit” (with respect to a preventive or therapeutic drug treatment) is defined as achieving a reduced risk for a disease that the drug is intended to treat or prevent (e.g., stroke) by administrating the drug treatment, compared with the risk for the disease in the absence of receiving the drug treatment (or receiving a placebo in lieu of the drug treatment) for the same genotype. The term “benefit” may be used herein interchangeably with terms such as “respond positively” or “positively respond”. For stroke risk and statin response associations based on samples from the CARE and PROSPER trials described herein, stroke risk is assessed by comparing the risk of stroke for a given genotype with the risk of stroke for a reference genotype either in the placebo arm of the trial or in the whole study population of the trial, and statin response is assessed by comparing the risk of stroke in the pravastatin arm of the trial with the risk of stroke in the placebo arm of the trial for the same genotype. […] Example Five above describes the analysis of these 61 SNPs plus 17 additional SNPs in the German West Study. […] In PROSPER, SNPs were analyzed for association with stroke risk or SSR, in the whole study cohort (strata: “ALL”), or in the subgroup with a history of CVD (strata: “hist”) or without a CVD history (strata: “no hist”). […] Also in the CARE and PROSPER trials, the chromosome 9p21 SNP […] (hCV26505812) was analyzed further for association with SSR, including unadjusted and adjusted analysis. Adjusted analysis in CARE (Table 37) was adjusted for age, gender, smoking status, hypertension, diabetes, body mass index (BMI), and LDL and HDL levels, and adjusted analysis in PROSPER (Table 38) was adjusted for country, gender, age, LDL, HDL, smoking status (current vs. past or never), history of hypertension, and diabetes. Table 37 provides results in CARE, and Table 38 provides results in PROSPER (whether each analysis is unadjusted or adjusted is indicated in the “adjust” column in Table 37, or by “unadj” and “adj” column labels in Tables 38). All the p-values (including Pint values) provided in Tables 37-38 are two-sided p-values.

[1] = hCV1348610 rs3739636 C9orf46, GENO_RESP AA + AG, MODE DOM, STRATA hist
[2] = hCV1348610 rs3739636 C9orf46, GENO_RESP AA, MODE GEN, STRATA hist
[3] = hCV1348610 rs3739636 C9orf46, GENO_RESP AG, MODE GEN, STRATA hist
[4] = hCV1348610 rs3739636 C9orf46, GENO_RESP GG, MODE GEN, STRATA hist
[5] = hCV2091644 rs1010 VAMP8, GENO_RESP CC, MODE GEN, STRATA no hist
[6] = hCV2091644 rs1010 VAMP8, GENO_RESP CT, MODE GEN, STRATA no hist
[7] = hCV2091644 rs1010 VAMP8, GENO_RESP TT, MODE GEN, STRATA no hist

Which results are given for `CC[C@H](C)C(=O)O[C@H]1C[C@H](O)C=C2C=C[C@H](C)[C@H](CC[C@@H](O)C[C@@H](O)CC(=O)O)[C@H]21` [pravastatin]?
HR_RESP_unadj (hazard ratio, pravastatin-treated versus placebo-treated) (PROSPER, rs10757274 genotype AA + AG, mode REC, strata ALL, unadjusted): 0.919; HR_RESP_unadj (hazard ratio, pravastatin-treated versus placebo-treated) (PROSPER, rs10757274 genotype AA + AG, mode REC, strata hist, unadjusted): 0.885; HR_RESP_unadj (hazard ratio, pravastatin-treated versus placebo-treated) (PROSPER, rs10757274 genotype AA + AG, mode REC, strata no hist, unadjusted): 0.927; HR_RESP_unadj (hazard ratio, pravastatin-treated versus placebo-treated) (PROSPER, rs10757274 genotype AA, mode GEN, strata ALL, unadjusted): 1.330; HR_RESP_unadj (hazard ratio, pravastatin-treated versus placebo-treated) (PROSPER, rs10757274 genotype AA, mode GEN, strata hist, unadjusted): 1.093; HR_RESP_unadj (hazard ratio, pravastatin-treated versus placebo-treated) (PROSPER, rs10757274 genotype AA, mode GEN, strata no hist, unadjusted): 1.570; HR_RESP_unadj (hazard ratio, pravastatin-treated versus placebo-treated) (PROSPER, rs10757274 genotype AG, mode GEN, strata ALL, unadjusted): 0.777; HR_RESP_unadj (hazard ratio, pravastatin-treated versus placebo-treated) (PROSPER, rs10757274 genotype AG, mode GEN, strata hist, unadjusted): 0.816; HR_RESP_unadj (hazard ratio, pravastatin-treated versus placebo-treated) (PROSPER, rs10757274 genotype AG, mode GEN, strata no hist, unadjusted): 0.698; HR_RESP_unadj (hazard ratio, pravastatin-treated versus placebo-treated) (PROSPER, rs10757274 genotype GG + AG, mode DOM, strata ALL, unadjusted): 0.864; HR_RESP_unadj (hazard ratio, pravastatin-treated versus placebo-treated) (PROSPER, rs10757274 genotype GG + AG, mode DOM, strata hist, unadjusted): 0.892; HR_RESP_unadj (hazard ratio, pravastatin-treated versus placebo-treated) (PROSPER, rs10757274 genotype GG + AG, mode DOM, strata no hist, unadjusted): 0.813; HR_RESP_unadj (hazard ratio, pravastatin-treated versus placebo-treated) (PROSPER, rs10757274 genotype GG, mode GEN, strata ALL, unadjusted): 1.082; HR_RESP_unadj (hazard ratio, pravastatin-treated versus placebo-treated) (PROSPER, rs10757274 genotype GG, mode GEN, strata hist, unadjusted): 1.098; HR_RESP_unadj (hazard ratio, pravastatin-treated versus placebo-treated) (PROSPER, rs10757274 genotype GG, mode GEN, strata no hist, unadjusted): 1.068; HR (hazard ratio) for stroke events, pravastatin-treated versus placebo-treated (PROSPER, heterozygous carriers of SNP rs10757274 (chromosome 9p21), unadjusted): 0.777; EVENTS_RESP (number of stroke events) (PROSPER, genotype AA + AG, mode REC, strata ALL): 150; EVENTS_RESP (number of stroke events) (PROSPER, genotype AA + AG, mode REC, strata hist): 87; EVENTS_RESP (number of stroke events) (PROSPER, genotype AA + AG, mode REC, strata no hist): 63; EVENTS_RESP (number of stroke events) (PROSPER, genotype AA, mode GEN, strata ALL): 56; EVENTS_RESP (number of stroke events) (PROSPER, genotype AA, mode GEN, strata hist): 28; EVENTS_RESP (number of stroke events) (PROSPER, genotype AA, mode GEN, strata no hist): 28; EVENTS_RESP (number of stroke events) (PROSPER, genotype AG, mode GEN, strata ALL): 94; EVENTS_RESP (number of stroke events) (PROSPER, genotype AG, mode GEN, strata hist): 59; EVENTS_RESP (number of stroke events) (PROSPER, genotype AG, mode GEN, strata no hist): 35; EVENTS_RESP (number of stroke events) (PROSPER, genotype GG + AG, mode DOM, strata ALL): 145; EVENTS_RESP (number of stroke events) (PROSPER, genotype GG + AG, mode DOM, strata hist): 86; EVENTS_RESP (number of stroke events) (PROSPER, genotype GG + AG, mode DOM, strata no hist): 59; EVENTS_RESP (number of stroke events) (PROSPER, genotype GG, mode GEN, strata ALL): 51; EVENTS_RESP (number of stroke events) (PROSPER, genotype GG, mode GEN, strata hist): 27; EVENTS_RESP (number of stroke events) (PROSPER, genotype GG, mode GEN, strata no hist): 24; EVENTS_RESP [1]: 71; HR_RESP (hazard ratio, pravastatin-treated versus placebo-treated) [1]: 0.8064; EVENTS_RESP [2]: 24; HR_RESP (hazard ratio, pravastatin-treated versus placebo-treated) [2]: 0.9861; EVENTS_RESP [3]: 47; HR_RESP (hazard ratio, pravastatin-treated versus placebo-treated) [3]: 0.7406; EVENTS_RESP [4]: 43; HR_RESP (hazard ratio, pravastatin-treated versus placebo-treated) [4]: 1.277; EVENTS_RESP (hCV2091644 rs1010 VAMP8, GENO_RESP CC + CT, MODE DOM, STRATA no hist): 50; EVENTS_RESP [5]: 13; HR_RESP (hazard ratio, pravastatin-treated versus placebo-treated) [5]: 0.6359; EVENTS_RESP [6]: 37; HR_RESP (hazard ratio, pravastatin-treated versus placebo-treated) [6]: 0.8504; EVENTS_RESP [7]: 36; HR_RESP (hazard ratio, pravastatin-treated versus placebo-treated) [7]: 1.358; EVENTS_RESP (hCV2169762 rs1804689 HPS1, GENO_RESP GG + GT, MODE REC, STRATA hist): 109; EVENTS_RESP (hCV2169762 rs1804689 HPS1, GENO_RESP GG, MODE GEN, STRATA hist): 62
